Experimental findings from patent US20240317711A1, “AURKA SELECTIVE DEGRADATION INDUCING COMPOUND” (UPPTHERA INC., priority 2021, published 2024) are described below.

The target of the assay is T1, AURKA (Homo sapiens, UniProt O14965).
T1 construct: An MDA-MB-231 cell line was purchased from the Korea Cell Line Bank; endogenous in cells; host or cells: MDA-MB-231
T1 sequence (O14965 1-403): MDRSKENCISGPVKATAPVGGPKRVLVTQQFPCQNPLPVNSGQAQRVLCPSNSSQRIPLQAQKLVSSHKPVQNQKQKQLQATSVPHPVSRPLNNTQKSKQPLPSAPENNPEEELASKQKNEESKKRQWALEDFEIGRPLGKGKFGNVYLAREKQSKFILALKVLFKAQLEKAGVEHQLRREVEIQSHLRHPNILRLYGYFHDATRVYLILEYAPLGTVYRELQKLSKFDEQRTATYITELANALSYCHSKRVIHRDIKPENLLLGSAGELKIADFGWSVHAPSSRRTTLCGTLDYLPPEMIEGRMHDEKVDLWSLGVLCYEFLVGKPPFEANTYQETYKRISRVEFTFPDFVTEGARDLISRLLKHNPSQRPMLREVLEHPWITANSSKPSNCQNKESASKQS
The assay is described as follows: Western blotting of AURKA degradation after 24 hours of compound treatment of MDA-MB-231 cell line. The assay is classed as cell-based. The settings on record: compound 0.1 μM, MDA-MB-231 cells, Western blot. From the text:
An MDA-MB-231 cell line was purchased from the Korea Cell Line Bank. The passage of cultured cells was maintained within P50.
For cell counting, a cell counter (Catalog #AMQAX1000) from Thermo and a 0.4% Trypan blue solution were used.
For cell culture, there were used RPMI (Gibco, Cat. No. 22400-089; Lot. No. 2323633), FBS (Gibco, Cat. No. 16000044; Lot. No. 2454168P), Penicillin/Streptomycin (PS) (Gibco, Cat. No. 15140-122; Lot. No. 2321150), 100 mm culture plate (SPL, Cat. No. 20100), 6-well culture plate (SPL, Cat. No. 30006), PBS pH7.4 (Gibco, Cat. No. 10010-023; Lot. No. 2380329), counting chamber (Hematocytometer) (Hirschmann, Cat. No. 8100204), and 0.4% trypan blue solution (DYNEBIO, Cat. No. CBT3710; Lot. No. 20211201).
3×10^5 cells were seeded in each well of a 12-well plate (SPL), and the cells were cultured in a total culture medium volume of 1 mL. […]
Next, a standard curve was obtained using the BCA assay and the protein mass in the lysate was quantified by substituting the obtained standard curve. The mixture was incubated at 37° C. for 30 minutes using 20 μL of a standard or sample solution and 200 μL of a BCA or Bradford solution, and absorbance was measured at 562 nm. […]
(Immunoblotting shows a protein as a band on a membrane.)

SMILES strings stand for the structures.

As for `O=C1CCC(N2C(=O)c3cccc(NCCCCCCN4CCN(C(=O)Cc5ccc(Nc6ncc(F)c(Nc7ccc(C(=O)Nc8ccccc8Cl)cc7)n6)cc5)CC4)c3C2=O)C(=O)N1` (stereo not shown) [Compound 14], the “AURKA protein degradation activity” value was at least 95%.
